From PubChem BioAssay AID1350 (Sanford-Burnham Center for Chemical Genomics, 2008)
Active and inactive are the calls of the source.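 The calls were made as follows: active = wells where survival under tumor necrosis factor attack stays above 50% of untreated control at 25 µM; inactive = the rest.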

Tested on: CSM14.1 TNF/CHX-induced death, ATPlite luminescence, 24 h
Assay: TNF extrinsic death rescue in CSM14.1 – cell-based, undifferentiated CSM14.1, ATP luminescence, selectivity assay for ER stress death inhibitor project, SAR follow-up (AID 1350)
Settings: at 25 µM; active compounds read high

SMILES | survival
O=C1CC(c2ccccc2)CC2=C1C(c1c(F)cccc1Cl)Nc1ccccc1N2 (stereo unspecified) | 32% (inactive)
COc1ccc(C2CC(=O)C3=C(C2)Nc2ccccc2NC3c2cccc(Oc3ccccc3)c2)cc1OC (stereo unspecified) | 39% (inactive)
CCCOc1ccc(C2Nc3ccccc3NC3=C2C(=O)CC(c2ccc(OC)c(OC)c2)C3)cc1 (stereo unspecified) | 45% (inactive)
COc1ccc(C2CC(=O)C3=C(C2)Nc2ccccc2NC3c2ccccc2C(F)(F)F)cc1OC (stereo unspecified) | 37% (inactive)
COc1ccc(C2CC(=O)C3=C(C2)Nc2ccccc2NC3c2cccc(C(F)(F)F)c2)cc1OC (stereo unspecified) | 37% (inactive)
CCOc1cccc(C2Nc3ccccc3NC3=C2C(=O)CC(c2ccc(OC)cc2)C3)c1 (stereo unspecified) | 40% (inactive)
COc1ccc(C2CC(=O)C3=C(C2)Nc2ccccc2NC3c2cc(C)ccc2C)cc1 (stereo unspecified) | 39% (inactive)
CCOc1cc(C2Nc3ccccc3NC3=C2C(=O)CC(c2ccc(OC)cc2)C3)cc(Cl)c1O (stereo unspecified) | 33% (inactive)
CC1(C)CC(=O)C2=C(C1)Nc1ccccc1NC2c1ccc(-c2ccccc2)cc1 (stereo unspecified) | 46% (inactive)
CSc1ccc(C2Nc3ccccc3NC3=C2C(=O)CC(c2ccccc2)C3)cc1 (stereo unspecified) | 43% (inactive)
COc1ccc(C2CC(=O)C3=C(C2)Nc2ccccc2NC3c2cccc(Br)c2)cc1OC (stereo unspecified) | 38% (inactive)
